Measurements as given in patent publication US20090036422A1 (priority 2007, published 2009).
Where a name gives a salt, the structure may show the parent alone.

Each molecule was assayed against T1, human orexin-2 (hOX2) receptor (Homo sapiens, UniProt O43614) (assay: Intracellular Ca2+ mobilization assay (FLIPR), CHO(dHFr-) cells expressing hOX2, orexin-A at EC80 as agonist). Settings: Kb=IC50/(1+[A]/EC50); CHO(dHFr-)-OX2R cells, antagonist applied 25 min before orexin-A EC80.
T1 construct: expressed in transfected cells
T1 sequence (O43614 1-444): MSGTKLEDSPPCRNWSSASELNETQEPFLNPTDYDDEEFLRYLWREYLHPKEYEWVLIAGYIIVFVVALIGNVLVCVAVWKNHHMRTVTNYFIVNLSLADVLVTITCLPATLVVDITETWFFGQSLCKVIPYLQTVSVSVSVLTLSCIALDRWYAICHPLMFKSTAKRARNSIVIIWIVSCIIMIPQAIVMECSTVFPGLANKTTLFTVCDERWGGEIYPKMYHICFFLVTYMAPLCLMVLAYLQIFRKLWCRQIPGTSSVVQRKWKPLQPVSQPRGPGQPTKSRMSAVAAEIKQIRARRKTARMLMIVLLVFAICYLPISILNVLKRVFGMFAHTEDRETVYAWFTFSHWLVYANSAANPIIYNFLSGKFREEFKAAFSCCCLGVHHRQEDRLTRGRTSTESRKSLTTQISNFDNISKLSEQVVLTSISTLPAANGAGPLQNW
Assay type: cell-based
Protocol: Intracellular Ca^2+ Mobilization Assay
The Chinese Hamster Ovary (dHFr−) mutant cell line stably expressing human orexin-1 (hOX1) or human orexin-2 (hOX2) receptors were maintained in Dulbecco's Modified Eagle Medium (1×) with GlutaMax™ 1, 4500 mg/L D-Glucose and Sodium Pyruvate (Catalog No. 31966-021, Invitrogen, Carlsbad, Calif.), 5% dialyzed fetal calf serum (Catalog No. 26400-044), 100 μg/ml penicillin and 100 μg/ml streptomycin. The cells were seeded at 5×10^4 cells/well in the poly-D-lysine treated, 96-well, black/clear-bottomed plates (Catalog No. BD356640, BD Biosciences, Palo Alto, Calif.). 24 h later, the cells were loaded for 1 h at 37° C. with 4 μM Flou-4 acetoxymethyl ester (Catalog No. F-14202, Molecular Probes, Eugene, Oreg.) in FLIPR buffer (1×HBSS, 20 mM HEPES, 2.5 mM Probenecid). Hanks' Balanced Salt Solution (HBSS) (10×) (catalog No. 14065-049) and HEPES (1M) (catalog No. 15630-056) were purchased from Invitrogen, Carlsbad, Calif. Probenecid (250 mM) (catalog No. P8761) was from Sigma, Buchs, Switzerland. The cells were washed five times with FLIPR buffer to remove excess dye and intracellular calcium mobilization, [Ca^2+]i were measured using a Fluorometric Imaging Plate Reader (FLIPR-96, Molecular Devices, Menlo Park, Calif.) as described previously (Malherbe et al., Mol. Pharmacol., 64, 823-832, 2003). Orexin A (catalog No. 1455, Toris Cookson Ltd, Bristol, UK) was used as agonist. Orexin A (50 mM stock solution in DMSO) was diluted in FLIPR buffer +0.1% BSA. The EC50 and EC80 values of orexin-A were measured daily from standard agonist concentration-response curves in CHO(dHFr−) —OX1R and —OX2R cell lines. All compounds were dissolved in 100% DMSO. Inhibition curves were determined by addition of 11 concentrations (0.0001-10 μM) of inhibitory compounds and using EC80 value of orexin-A as agonist (a concentration which gave 80% of max agonist response, determined daily). The antagonists were applied 25 min (incubation at 37° C.) before the application of the agonist. Responses were measured as peak increase in fluorescence minus basal, normalized to the maximal stimulatory effect induced by EC80 value of orexin-A or orexin-B. Inhibition curves were fitted according to the Hill equation: y=100/(1+(x/IC50)^nH), where nH=slope factor using Excel-fit 4 software (Microsoft).
Kb values were calculated according to the following equation Kb=IC50/(1+[A]/EC50) where A is the concentration of agonist added which is very close to agonist EC80 value, and IC50 and EC50 values were derived from the antagonist inhibition and orexin-A or B agonist curves, respectively.

SMILES | Kb
COc1ccc(N(CCc2ccc(C(F)(F)F)cc2)C(=O)C(O)c2ccccc2OC)cc1OC (stereo not drawn) [Example 17, N-(3,4-dimethoxyphenyl)-2-hydroxy-2-(2-methoxyphenyl)-N-{2-[4-(trifluoromethyl)phenyl]ethyl}acetamide] | 0.0165 µM
COc1ccccc1CC(=O)N(CCc1ccc(C(F)(F)F)cc1)c1ccc(OC)c(OC)c1 [Example 14, N-(3,4-dimethoxyphenyl)-2-(2-methoxyphenyl)-N-{2-[4-(trifluoromethyl)phenyl]ethyl}acetamide] | 0.0342 µM
Cc1cccc(N(CCc2ccc(C(F)(F)F)cc2)C(=O)C(N)c2ccccc2)c1 (stereo not drawn) [Example 70, 2-Amino-2-phenyl-N-m-tolyl-N-[2-(4-trifluoromethyl-phenyl)-ethyl]-acetamide] | 0.0579 µM
COc1ccc(N(CCc2ccc(C(F)(F)F)cc2)C(=O)C(O)c2ccc(Cl)cc2)cc1OC (stereo not drawn) [Example 30, 2-(4-chlorophenyl)-N-(3,4-dimethoxyphenyl)-2-hydroxy-N-{2-[4-(trifluoromethyl)phenyl]ethyl}acetamide] | 0.0757 µM
N[C@H](C(=O)N(CCc1ccc(C(F)(F)F)cc1)c1ccc2c(c1)CCCC2)c1ccccc1 [Example 150, (S)-2-Amino-2-phenyl-N-(5,6,7,8-tetrahydro-naphthalen-2-yl)-N-[2-(4-trifluoromethyl-phenyl)-ethyl]-acetamide] | 0.0682 µM
COc1ccc(N(CCc2ccc(C(F)(F)F)cc2)C(=O)[C@@H](O)c2ccccc2)cc1OC [Example 23, (2S)-N-(3,4-dimethoxyphenyl)-2-hydroxy-2-phenyl-N-{2-[4-(trifluoromethyl)phenyl]ethyl}acetamide] | 0.0226 µM
CCOc1ccc(N(CCc2ccc(C(F)(F)F)cc2)C(=O)[C@@H](N)c2ccc(F)cc2)cc1Cl [Example 165, (S)-2-Amino-N-(3-chloro-4-ethoxy-phenyl)-2-(4-fluoro-phenyl)-N-[2-(4-trifluoromethyl-phenyl)-ethyl]-acetamide] | 0.0673 µM
COc1cccc(N(CCc2ccc(C(F)(F)F)cc2)C(=O)[C@@H](N)c2ccc(F)cc2)c1 [Example 160] | 0.0291 µM
Cc1ccc(N(CCc2ccc(F)c(F)c2)C(=O)C(N)c2ccc(Cl)s2)cc1C (stereo not drawn) [Example 214, 2-Amino-2-(5-chloro-thiophen-2-yl)-N-[2-(3,4-difluoro-phenyl)-ethyl]-N-(3,4-dimethyl-phenyl)-acetamide hydrochloride] | 0.0966 µM
CCOc1ccc(N(CCc2ccc(C(F)(F)F)cc2)C(=O)C(N)c2ccccc2)cc1OCC (stereo not drawn) [Example 68, 2-Amino-N-(3,4-diethoxy-phenyl)-2-phenyl-N-[2-(4-trifluoromethyl-phenyl)-ethyl]-acetamide] | 0.0117 µM
NC(C(=O)N(CCc1ccc(C(F)(F)F)cc1)c1ccc(OC(F)F)cc1)c1ccccc1 (stereo not drawn) [Example 105, 2-Amino-N-(4-difluoromethoxy-phenyl)-2-phenyl-N-[2-(4-trifluoromethyl-phenyl)-ethyl]-acetamide] | 0.0414 µM
COc1cccc(N(CCc2ccc(C(F)(F)F)cc2)C(=O)[C@@H](N)c2ccccc2)c1 [Example 151, (S)-2-Amino-N-(3-methoxy-phenyl)-2-phenyl-N-[2-(4-trifluoromethyl-phenyl)-ethyl]-acetamide] | 0.0112 µM

Further lines, results first:

Kb | SMILES
0.0666 µM | Cc1ccc(N(CCc2ccc(C(F)(F)F)cc2)C(=O)C(N)c2ccccc2)cc1C (stereo not drawn) [Example 84, 2-Amino-N-(3,4-dimethyl-phenyl)-2-phenyl-N-[2-(4-trifluoromethyl-phenyl)-ethyl]-acetamide]
0.0173 µM | COC(CNC(C(=O)N(CCc1ccc(C)cc1)c1ccc(C)c(C)c1)c1ccccc1)OC (stereo not drawn) [Example 129, 2-(2,2-Dimethoxy-ethylamino)-N-(3,4-dimethyl-phenyl)-2-phenyl-N-(2-p-tolyl-ethyl)-acetamide]
0.0604 µM | N[C@H](C(=O)N(CCc1ccc(F)cc1)c1ccc2c(c1)OCC2)c1ccccc1 [Example 243, (S)-2-Amino-N-(2,3-dihydro-benzofuran-6-yl)-N-[2-(4-fluoro-phenyl)-ethyl]-2-phenyl-acetamide hydrochloride]
0.007 µM | Cc1ccc(CCN(C(=O)C(NCC2OCCO2)c2ccccc2)c2ccc(C)c(C)c2)cc1 (stereo not drawn) [Example 133, N-(3,4-Dimethyl-phenyl)-2-[([1,3]dioxolan-2-ylmethyl)-amino]-2-phenyl-N-(2-p-tolyl-ethyl)-acetamide]
0.0322 µM | CN[C@H](C(=O)N(CCc1ccc(C(F)(F)F)cc1)c1ccc(C)c(C)c1)c1ccccc1OC [Example 157, (S)—N-(3,4-Dimethyl-phenyl)-2-(2-methoxy-phenyl)-2-methylamino-N-[2-(4-trifluoromethyl-phenyl)-ethyl]-acetamide]
0.076 µM | Cc1ccc(N(CCc2ccc(C(F)(F)F)cc2)C(=O)Cn2c(C)nc3ccccc32)cc1C [Example 236, N-(3,4-Dimethyl-phenyl)-2-(2-methyl-benzoimidazol-1-yl)-N-[2-(4-trifluoromethyl-phenyl)-ethyl]-acetamide]
0.0077 µM | Cc1ccc(N(CCc2ccc(OC(F)F)cc2)C(=O)[C@@H](N)c2ccccc2)cc1C [Example 210, (S)-2-Amino-N-[2-(4-difluoromethoxy-phenyl)-ethyl]-N-(3,4-dimethyl-phenyl)-2-phenyl-acetamide hydrochloride]
0.0416 µM | Cc1ccc(CCN(C(=O)C(NCc2ccco2)c2ccccc2)c2ccc(C)c(C)c2)cc1 (stereo not drawn) [Example 130, N-(3,4-Dimethyl-phenyl)-2-[(furan-2-ylmethyl)-amino]-2-phenyl-N-(2-p-tolyl-ethyl)-acetamide]
0.0161 µM | Cc1ccc(CCN(C(=O)C(NC[C@@H]2CCCO2)c2ccccc2)c2ccc(C)c(C)c2)cc1 (stereo partly drawn) [Example 134, N-(3,4-Dimethyl-phenyl)-2-phenyl-2-{[(S)-1-(tetrahydro-furan-2-yl)methyl]-amino}-N-(2-p-tolyl-ethyl)-acetamide]
0.0364 µM | Cc1ccc(N(CCc2ccc(C(F)(F)F)cc2)C(=O)[C@@H](N)c2ccccc2)cc1C [Example 138, (S)-2-Amino-N-(3,4-dimethyl-phenyl)-2-phenyl-N-[2-(4-trifluoromethyl-phenyl)-ethyl]-acetamide]
0.0178 µM | Cc1ccc(N(CCc2cccc(Cl)c2F)C(=O)[C@@H](N)c2ccccc2)cc1C [Example 204, (S)-2-Amino-N-[2-(3-chloro-2-fluoro-phenyl)-ethyl]-N-(3,4-dimethyl-phenyl)-2-phenyl-acetamide hydrochloride]
0.0052 µM | COc1ccccc1CCN(C(=O)[C@@H](N)c1ccccc1)c1ccc(C)c(C)c1 [Example 194, (S)-2-Amino-N-(3,4-dimethyl-phenyl)-N-[2-(2-methoxy-phenyl)-ethyl]-2-phenyl-acetamide hydrochloride]
0.0249 µM | Cc1ccc(N(CCc2cccc(C(F)(F)F)c2)C(=O)[C@@H](N)c2ccccc2)cc1C [Example 184, (S)-2-Amino-N-(3,4-dimethyl-phenyl)-2-phenyl-N-[2-(3-trifluoromethyl-phenyl)-ethyl]-acetamide hydrochloride]
0.0071 µM | Cc1ccc(N(CCc2ccc(F)c(F)c2)C(=O)[C@@H](N)c2ccccc2)cc1C [Example 189, (S)-2-Amino-N-[2-(3,4-difluoro-phenyl)-ethyl]-N-(3,4-dimethyl-phenyl)-2-phenyl-acetamide hydrochloride]
0.0201 µM | CCOCCNC(C(=O)N(CCc1ccc(C)cc1)c1ccc(C)c(C)c1)c1ccccc1 (stereo not drawn) [Example 136, N-(3,4-Dimethyl-phenyl)-2-(2-ethoxy-ethylamino)-2-phenyl-N-(2-p-tolyl-ethyl)-acetamide]
